Results taken from patent publication US12103916B2, “Antifungal compounds” (University of Kentucky Research Foundation, priority 2016, dated 2024).
Converted amounts (≈) assume the structure as drawn. Read-outs that look alike come from different tables or passages of the source.

Experiments:
[1] = test system: Candida albicans ATCC 10231; test: MIC determination, strain A; assay type: cell-based; settings: for MIC: Candida albicans, ATCC10231
Text: (§1) For all of our azole derivatives we report their MIC-0 values against C. albicans ATCC 10231 (strain A) and all Aspergillus strains (K-M), which correspond to complete growth inhibition of these fungi. […] The MIC values presented for these five control drugs were either tested herein or correspond to our previously published data^5, 16 as indicated in Table 1.
(§2) Antifungal activity in the absence or presence of serum.
(§3) It is important to note that all comparisons to follow will be done by using the MIC values reported in μg/mL as the data were collected that way. However, we also present in parentheses in Table 2 the corresponding values in micromolar.
(§4) In this manuscript, we performed all activity comparisons by using the MIC values reported in μg/mL (Note: the corresponding MIC values are also provided in μM into parentheses in Tables 1, 2, S1, and S2).

C. albicans ATCC 64124 = test: MIC determination, strain B; assay type: cell-based, Candida albicans; settings: strain B, AmB; for MIC: Candida albicans, ATCC64124
Experimental: (§5) The antifungal activity of our new azole compounds 1-9 and 24-41 was first evaluated against a panel of seven Candida albicans strains (A-G), three non-albicans Candida strains […], and three Aspergillus strains (K-M) in a concentration range of 0.03-31.2 μg/mL (Table 1). […] For all of our azole derivatives we report their MIC-0 values against C. albicans ATCC 10231 (strain A) and all Aspergillus strains (K-M), which correspond to complete growth inhibition of these fungi. […] The commercially available antifungals AmB, FLC, ITC, POS, and VOR were used as reference drugs for comparison. The MIC values presented for these five control drugs were either tested herein or correspond to our previously published data^5, 16 as indicated in Table 1.
(§6) Antifungal activity in the absence or presence of serum. The antifungal activity of the newly prepared alkylated piperazine/morpholine-azole hybrids 16-28, of intermediate 14 that we used to verify that only final compounds exert antifungal activity, as well as that of alkylated piperazine/morpholine derivatives 1-10 were first evaluated against a panel of seven C. albicans (ATCC 10231 (A), ATCC 64124(R) (B), ATCC MYA-2876(S) (C), ATCC 90819(R) (D), ATCC MYA-2310(S) (E), ATCC MYA-1237(R) (F), and ATCC MYA-1003(R) (G)), three non-albicans Candida (C. glabrata ATCC 2001 (H), C. krusei ATCC 6258 (I), and C. parapsilosis ATCC 22019 (J)), and three Aspergillus (A. flavus ATCC MYA-3631 (K), A. nidulans ATCC 38163 (L), and A. terreus ATCC MYA-3633 (M)) strains using a concentration range of 0.03-31.3 μg/mL (Table 2).
(§7) Commercially available antifungal agents such as AmB, CAS, FLC, and VOR were used as positive controls for comparison. […] It is important to note that all comparisons to follow will be done by using the MIC values reported in μg/mL as the data were collected that way. However, we also present in parentheses in Table 2 the corresponding values in micromolar.
(§8) We used the commercially available antifungal agents such as AmB, caspofungin (CAS), FLC, and VOR as positive controls for comparison. For derivatives 5-16 as well as the reference drugs AmB and CAS, we reported MIC-0 values, which correspond to no visible growth. […] In this manuscript, we performed all activity comparisons by using the MIC values reported in μg/mL (Note: the corresponding MIC values are also provided in μM into parentheses in Tables 1, 2, S1, and S2).

[2] = test system: C. albicans ATCC MYA-2876(S); test: MIC determination, strain C; assay type: cell-based, Candida albicans; settings: strain C, AmB; for MIC: Candida albicans
Experimental: as §5, §6, §7, §8

[3] = test system: C. albicans ATCC 90819(R); test: MIC determination, strain D; assay type: cell-based, Candida albicans; settings: strain D, AmB; for MIC: Candida albicans, ATCC90819
Experimental: as §5, §6, §7, §8

[4] = test system: C. albicans ATCC MYA-2310(S); test: MIC determination, strain E; assay type: cell-based, Candida albicans; settings: strain E, AmB; for MIC: Candida albicans
Experimental: as §5, §6, §7, §8

[5] = test system: C. albicans ATCC MYA-1237(R); test: MIC determination, strain F; assay type: cell-based, Candida albicans; settings: strain F, AmB; for MIC: Candida albicans
Text: as §1, §2, §3, §4

[6] = test system: C. albicans ATCC MYA-1003(R); test: MIC determination, strain G; assay type: cell-based, Candida albicans; settings: strain G, AmB; for MIC: Candida albicans
Text: as §1, §2, §3, §4

[7] = test system: Candida glabrata ATCC 2001; test: MIC determination, strain H; assay type: cell-based; settings: strain H, AmB; for MIC: Nakaseomyces glabratus, ATCC2001
Experimental: as §5, §6, §7, §8

Candida krusei ATCC 6258 = test: MIC determination, strain I; assay type: cell-based; settings: strain I, AmB; for MIC: Pichia kudriavzevii, ATCC6258
Experimental: as §5, §6, §7, §8

[8] = test system: Aspergillus terreus ATCC MYA-3633; test: MIC determination, strain M; assay type: cell-based; settings: for MIC: Aspergillus terreus
Text: as §1, §2, §3, §4

BEAS-2B cell line = test: Cytotoxicity assay, BEAS-2B; settings: Ex.1 series, 15.6 μg/mL
Experimental: The positive control consisted of cells treated with Triton X-100® (TX, 12.5% v/v). The negative control consisted of cells treated with DMSO (no drug).
The positive control consisted of cells treated with Triton X-100® (TX, 20% v/v, pink). The negative control consisted of cells treated with DMSO (no drug, green). The experiments were performed in duplicate.
In vitro cytotoxicity assay.

[9] = test system: Candida parapsilosis ATCC 22019; test: MIC determination, strain J; assay type: cell-based; settings: Lodderomyces parapsilosis, ATCC22019, Table 2, strain J, Ex.2 compounds, AmB, CAS
Experimental: as §5, §6, §7, §8

[10] = test system: Aspergillus flavus ATCC MYA-3631; test: MIC determination, strain K; assay type: cell-based; settings: Table 2, all compounds and controls
Text: as §1, §2, §3, §4

[11] = test system: Aspergillus nidulans ATCC 38163; test: MIC determination, strain L; assay type: cell-based; settings: ATCC38163, Table 2, strain L, all compounds and controls
Text: as §1, §2, §3, §4

[12] = Table 2, all compounds and controls
[13] = Table 2, Ex.2 compounds, CAS, read-out: MIC (MIC-0)
[14] = Table 2, Ex.2 compounds, CAS, read-out: MIC (MIC-0), in parentheses
[15] = read-out: MIC (MIC-0), in parentheses

Compound: C[C@@H]1[C@H](O)[C@@H](C)/C=C/C=C/C=C/C=C/C=C/C=C/C=C/[C@H](O[C@@H]2O[C@H](C)[C@@H](O)[C@H](N)[C@@H]2O)C[C@@H]2O[C@](O)(C[C@@H](O)C[C@@H](O)[C@H](O)CC[C@@H](O)C[C@@H](O)CC(=O)O[C@H]1C)C[C@H](O)[C@H]2C(=O)O [AmB, amphotericin B]
- MIC (MIC-0) ([1]; Table 1, strain A, Ex.1 compounds 1-9, 24-41 and AmB, complete growth inhibition): 3.9 µg/mL (≈ 4.22 µM)
- MIC (MIC-0) ([1]; Table 2, strain A, Ex.2 compounds 1-10, 14, 16-28, AmB, CAS, no visible growth): 3.9 µg/mL (≈ 4.22 µM)
- MIC (MIC-0), in parentheses ([1]; Table 2, strain A, Ex.2 compounds, AmB, CAS): (4.2) micromolar
- MIC, Candida albicans ATCC 10231 (A) (+10% FBS) ([1]; Table 3, Ex.2 compounds, +10% FBS): 7.8 µg/mL (≈ 8.44 µM)
- MIC, Candida albicans ATCC 10231 (A) (no FBS) ([1]; Table 3, Ex.2 compounds, no FBS): 3.9 µg/mL (≈ 4.22 µM)
- MIC (MIC-0) (C. albicans ATCC 64124; Table 1): 3.9 µg/mL (≈ 4.22 µM)
- MIC (MIC-0) (C. albicans ATCC 64124; Table 2, Ex.2 compounds, CAS): 3.9 µg/mL (≈ 4.22 µM)
- MIC (MIC-0), in parentheses (C. albicans ATCC 64124; Table 2, Ex.2 compounds, CAS): (4.2) micromolar
- MIC (MIC-0) ([2]; Table 1): 1.95 µg/mL (≈ 2.11 µM)
- MIC (MIC-0) ([2]; Table 2, Ex.2 compounds, CAS): 1.95 µg/mL (≈ 2.11 µM)
- MIC (MIC-0), in parentheses ([2]; Table 2, Ex.2 compounds, CAS): (2.1) micromolar
- MIC (MIC-0) ([3]; Table 1): 0.975 µg/mL (≈ 1.06 µM)
- MIC (MIC-0) ([3]; Table 2, Ex.2 compounds, CAS): 0.975 µg/mL (≈ 1.06 µM)
- MIC (MIC-0), in parentheses ([3]; Table 2, Ex.2 compounds, CAS): (1.1) micromolar
- MIC (MIC-0) ([4]; Table 1): 1.95 µg/mL (≈ 2.11 µM)
- MIC (MIC-0) ([4]; Table 2, Ex.2 compounds, CAS): 1.95 µg/mL (≈ 2.11 µM)
- MIC (MIC-0), in parentheses ([4]; Table 2, Ex.2 compounds, CAS): (2.1) micromolar
- MIC (MIC-0) ([5]; Table 1): 3.9 µg/mL (≈ 4.22 µM)
- MIC (MIC-0) ([5]; Table 2, Ex.2 compounds, CAS): 3.9 µg/mL (≈ 4.22 µM)
- MIC (MIC-0), in parentheses ([5]; Table 2, Ex.2 compounds, CAS): (4.2) micromolar
- MIC (MIC-0) ([6]; Table 1): 3.9 µg/mL (≈ 4.22 µM)
- MIC (MIC-0) ([6]; Table 2, Ex.2 compounds, CAS): 3.9 µg/mL (≈ 4.22 µM)
- MIC (MIC-0), in parentheses ([6]; Table 2, Ex.2 compounds, CAS): (4.2) micromolar
- MIC (MIC-0) ([7]; Table 1): 1.95 µg/mL (≈ 2.11 µM)
- MIC (MIC-0) ([7]; Table 2, Ex.2 compounds, CAS): 1.95 µg/mL (≈ 2.11 µM)
- MIC (MIC-0), in parentheses ([7]; Table 2, Ex.2 compounds, CAS): (2.1) micromolar
- MIC (MIC-0) (Candida krusei ATCC 6258; Table 1): 3.9 µg/mL (≈ 4.22 µM)
- MIC (MIC-0) (Candida krusei ATCC 6258; Table 2, Ex.2 compounds, CAS): 3.9 µg/mL (≈ 4.22 µM)
- MIC (MIC-0), in parentheses (Candida krusei ATCC 6258; Table 2, Ex.2 compounds, CAS): (4.2) micromolar
- MIC (MIC-0) ([8]; Table 1, Ex.1 compounds and AmB, complete growth inhibition): 3.9 µg/mL (≈ 4.22 µM)
- MIC (MIC-0) [8, 12]: 3.9 µg/mL (≈ 4.22 µM)
- MIC (MIC-0), in parentheses [8, 12]: (4.2) micromolar
- cell survival (BEAS-2B cell line): 30%

Compound: CC[C@H](C)C[C@H](C)CCCCCCCCC(=O)N[C@H]1C[C@@H](O)[C@@H](NCCN)NC(=O)[C@@H]2[C@@H](O)CCN2C(=O)[C@H]([C@H](O)CCN)NC(=O)[C@H]([C@H](O)[C@@H](O)c2ccc(O)cc2)NC(=O)[C@@H]2C[C@@H](O)CN2C(=O)[C@H]([C@@H](C)O)NC1=O [CAS, caspofungin]
- MIC ([1]; Table 2, strain A, Ex.2 compounds 1-10, 14, 16-28, AmB, CAS, no visible growth, read-out: MIC (MIC-0)): 0.975 µg/mL
- MIC ([1]; Table 2, strain A, Ex.2 compounds, AmB, CAS, read-out: MIC (MIC-0), in parentheses): 0.8 µM
- MIC (C. albicans ATCC 64124; [13]): 0.24 µg/mL
- MIC (C. albicans ATCC 64124; [14]): 0.2 µM
- MIC [2, 13]: 0.06 µg/mL
- MIC [2, 14]: 0.05 µM
- MIC [3, 13]: 0.12 µg/mL
- MIC [3, 14]: 0.1 µM
- MIC [4, 13]: 0.12 µg/mL
- MIC [4, 14]: 0.1 µM
- MIC [5, 13]: 0.24 µg/mL
- MIC [5, 14]: 0.2 µM
- MIC [6, 13]: 0.48 µg/mL
- MIC [6, 14]: 0.4 µM
- MIC [7, 13]: 0.06 µg/mL
- MIC [7, 14]: 0.05 µM
- MIC (Candida krusei ATCC 6258; [13]): 0.48 µg/mL
- MIC (Candida krusei ATCC 6258; [14]): 0.4 µM
- MIC ([9]; read-out: MIC (MIC-0)): 1.95 µg/mL
- MIC [9, 15]: 1.6 µM
- MIC ([10]; read-out: MIC (MIC-0)): > 31.3 µg/mL
- MIC [10, 15]: > 25.8 µM
- MIC ([11]; read-out: MIC (MIC-0)): > 31.3 µg/mL
- MIC [11, 15]: > 25.8 µM
- MIC ([8]; Table 2, all compounds and controls, read-out: MIC (MIC-0)): > 31.3 µg/mL
- MIC ([8]; Table 2, all compounds and controls, read-out: MIC (MIC-0), in parentheses): > 25.8 µM
